Results on 3 compounds are retold here after ChEMBL document CHEMBL3045802, “Synthesis and in vitro antitumor activity of new quinoline, pyrimido[4,5-b]quinoline, [1,2,3]triazino[4,5-b]quinoline, and [1,2,4]triazolo[2,3:3,4]pyrimido[6,5-b]quinoline analogs” (2013).

Holding throughout (format): functional
The subject of assay [1] is CCRF-CEM. Briefly: Cytotoxicity against Homo sapiens (human) CCRF-CEM cells assessed as growth inhibition at 10 uM after 48 hr by coulter counter analysis. The following applies: read-out: GI.
The test system of assay [2] is NCI-H522. Briefly: Cytotoxicity against Homo sapiens (human) NCI-H522 cells assessed as growth inhibition at 10 uM after 48 hr by coulter counter analysis. The following applies: NCI-H522, 48 h, read-out: GI.
In assay [3] the test system is NCI-H460. Briefly: Cytotoxicity against Homo sapiens (human) NCI-H460 cells assessed as growth inhibition at 10 uM after 48 hr by coulter counter analysis. The following applies: NCI-H460, 48 h, read-out: GI.
Assay [4] concerns DU-145. Briefly: Cytotoxicity against Homo sapiens (human) DU145 cells assessed as growth inhibition at 10 uM after 48 hr by coulter counter analysis. The settings on record: DU-145, 48 h, read-out: GI.
Assay [5] concerns MDA-MB-435. Briefly: Cytotoxicity against Homo sapiens (human) MDA-MB-435 cells assessed as growth inhibition at 10 uM after 48 hr by coulter counter analysis. The following applies: MDA-MB-435, 48 h, read-out: GI.
Assay [6] deals with HOP-92. The experiment in a line: Cytotoxicity against Homo sapiens (human) HOP92 cells assessed as growth inhibition at 10 uM after 48 hr by coulter counter analysis. The settings on record: HOP-92, 48 h, read-out: GI.
Assay [7] concerns M14. The experiment in a line: Cytotoxicity against Homo sapiens (human) M14 cells assessed as growth inhibition at 10 uM after 48 hr by coulter counter analysis. The following applies: M14, 48 h, read-out: GI.
A short description of assay [8]: Cytotoxicity against Homo sapiens (human) NCI-ADR-RES cells assessed as growth inhibition at 10 uM after 48 hr by coulter counter analysis. The following applies: read-out: GI.
For assay [9], the system named is OVCAR-5. The experiment in a line: Cytotoxicity against Homo sapiens (human) OVCAR5 cells assessed as growth inhibition at 10 uM after 48 hr by coulter counter analysis. The settings on record: OVCAR-5, 48 h, read-out: GI.
The subject of assay [10] is SK-MEL-28. Briefly: Cytotoxicity against Homo sapiens (human) SK-MEL-28 cells assessed as growth inhibition at 10 uM after 48 hr by coulter counter analysis. The following applies: SK-MEL-28, 48 h, read-out: GI.
Assay [11] deals with NCI-H23. The experiment in a line: Cytotoxicity against Homo sapiens (human) NCI-H23 cells assessed as growth inhibition at 10 uM after 48 hr by coulter counter analysis. The following applies: NCI-H23, 48 h, read-out: GI.
Assay [12] deals with RPMI-8226. The experiment in a line: Cytotoxicity against Homo sapiens (human) RPMI8226 cells assessed as growth inhibition at 10 uM after 48 hr by coulter counter analysis. The settings on record: RPMI-8226, 48 h, read-out: GI.
Assay [13] concerns HL-60(TB). The experiment in a line: Cytotoxicity against Homo sapiens (human) HL-60(TB) cells assessed as growth inhibition at 10 uM after 48 hr by coulter counter analysis. The following applies: HL-60, 48 h, read-out: GI.
The subject of assay [14] is A498. The experiment in a line: Cytotoxicity against Homo sapiens (human) A498 cells assessed as growth inhibition at 10 uM after 48 hr by coulter counter analysis. The following applies: A498, 48 h, read-out: GI.
The subject of assay [15] is OVCAR-4. The experiment in a line: Cytotoxicity against Homo sapiens (human) OVCAR4 cells assessed as growth inhibition at 10 uM after 48 hr by coulter counter analysis. The following applies: OVCAR-4, 48 h, read-out: GI.
The subject of assay [16] is BT-549. The experiment in a line: Cytotoxicity against Homo sapiens (human) BT549 cells assessed as growth inhibition at 10 uM after 48 hr by coulter counter analysis. The settings on record: BT-549, 48 h, read-out: GI.
Assay [17] relates to SK-OV-3. The experiment in a line: Cytotoxicity against Homo sapiens (human) SKOV3 cells assessed as growth inhibition at 10 uM after 48 hr by coulter counter analysis. The settings on record: SK-OV-3, 48 h, read-out: GI.
The subject of assay [18] is TK-10. Briefly: Cytotoxicity against Homo sapiens (human) TK10 cells assessed as growth inhibition at 10 uM after 48 hr by coulter counter analysis. The following applies: TK-10, 48 h, read-out: GI.
Assay [19] has as its system MCF7. Briefly: Cytotoxicity against Homo sapiens (human) MCF7 cells assessed as growth inhibition at 10 uM after 48 hr by coulter counter analysis. The following applies: MCF7, 48 h, read-out: GI.
Assay [20] has as its system Malme-3M. Briefly: Cytotoxicity against Homo sapiens (human) MALME-3M cells assessed as growth inhibition at 10 uM after 48 hr by coulter counter analysis. The following applies: read-out: GI.
The test system of assay [21] is SF-295. The experiment in a line: Cytotoxicity against Homo sapiens (human) SF295 cells assessed as growth inhibition at 10 uM after 48 hr by coulter counter analysis. The settings on record: SF-295, 48 h, read-out: GI.
For assay [22], the system named is LOX IMVI. The experiment in a line: Cytotoxicity against Homo sapiens (human) LOXIMVI cells assessed as growth inhibition at 10 uM after 48 hr by coulter counter analysis. The following applies: read-out: GI.
In assay [23] the test system is ACHN. Briefly: Cytotoxicity against Homo sapiens (human) ACHN cells assessed as growth inhibition at 10 uM after 48 hr by coulter counter analysis. The following applies: read-out: GI.

With `O=c1[nH]nnc2c1C(c1ccc(Cl)cc1)C1=C(CCCC1)N2` (centres undefined), the inhibition of growth at 10 µM in assay [1] is less than 10%; in assay [2], 13.5%; in [3] it was less than 10%; in assay [4], less than 10%; in [5] it was less than 10%; in [6], less than 10%. Besides, the inhibition of growth at 10 µM in assay [7] was less than 10%; in assay [8] it was less than 10%; in [9], less than 10%; in assay [10], less than 10%; in [11], 10.4%; in assay [12] it was less than 10%. For the same compound, the inhibition of growth at 10 µM was less than 10% in assay [13]; 28.3% in assay [14]; less than 10% in [15]; less than 10% in [16]; less than 10% in assay [17]; less than 10% in [18]. The inhibition of growth at 10 µM in assay [19], in [20], in assay [21], in [22] and in assay [23] was less than 10% in each case.
For the compound `CN(C)c1ccc(-c2nc3c(c(=O)[nH]2)C(c2ccc(Cl)cc2)C2=C(CCCC2)N3)cc1` (centres undefined), the inhibition of growth at 10 µM in [1] is less than 10%; in [2], 15.8%; in assay [3] it was less than 10%; in assay [4] it was less than 10%; in [5], less than 10%; in assay [6], 35.9%. Also, the inhibition of growth at 10 µM in assay [7] was less than 10%; in assay [8] it was less than 10%; in assay [9], less than 10%; in assay [10] it was less than 10%; in [11], 12.4%; in [12], less than 10%. Besides, the inhibition of growth at 10 µM in assay [13], in assay [14], in assay [15], in [16], in [17] and in assay [18] was less than 10% throughout. Also, the inhibition of growth at 10 µM in [19] is less than 10%; in assay [20], less than 10%; in assay [21] it was less than 10%; in assay [22], less than 10%; in assay [23], 13.1%.
As to `COc1ccc(-c2nc3c(c(=O)[nH]2)C(c2ccc(Cl)cc2)C2=C(CCCC2)N3)cc1OC` (centres undefined), the inhibition of growth at 10 µM in assay [1] is less than 10%; in assay [2], 10.1%; in [3], less than 10%; in assay [4], less than 10%; in [5], less than 10%; in [6] it was less than 10%. The inhibition of growth at 10 µM in assay [7], in [8], in [9], in assay [10], in assay [11] and in [12] was less than 10% each time. Moreover, the inhibition of growth at 10 µM in assay [13], in assay [14], in [15], in assay [16], in assay [17] and in [18] was less than 10% throughout. For the same compound, the inhibition of growth at 10 µM in assay [19] is 13.5%; in assay [20] it was less than 10%; in [21], less than 10%; in assay [22], less than 10%; in [23] it was less than 10%.
